Data on three compounds can be found in patent US6495131B1, “Interleukin-3 gene therapy for cancer” (priority 1998, dated 2002).

The test deals with ROS-1 osteosarcoma. The test can be described thus: Tumor growth of ROS-1 osteosarcoma in hindlimb after ILP or intra-tumoral injection. The class given is in vivo. The following applies: ROS-1, ILP 15 minutes, 1.10^9 iu vector plus 50 μg TNFα, 40 μg melphalan or 200 μg doxorubicin per rat.

Description: The rapidly growing ROS-1 osteosarcoma originated spontaneously in the tibia of a Wag/Rij rat (Barendsen et al. (1987)). The ROS-1 was implanted subcutaneously in the flank of donor Wag/Rij rats and passaged serially. The ROS-1 has a tumor doubling time of 5 days.
Fragments of the BN175 or ROS-1 (osteo)sarcoma were subcutaneously implanted into the right hindlimb of the experimental animals just above the ankle. The tumor size was measured regularly by caliper measurement in two dimensions. When the tumor reached a volume of 180-524 mm^3 (diameter between 7 and 10 mm) an isolated limb perfusion (ILP) with the recombinant adenoviral vector was performed. As a control, tumor bearing rats underwent ILP without the addition of said recombinant adenoviral vectors (termed sham ILP). An other group of tumor bearing rats underwent a direct intra-tumor injection with said recombinant adenoviral vector. The tumor volume was between 180-524 mm^3). After ILP or direct intra-tumor injection the tumor size was measured every (mon-fri)day.
Surgical procedures were performed under Hypnorm anaesthesia. […] After an incision parallel to the inguinal ligament the femoral and vein were approached and cannulated with silastic tubing (0.30 mm ID, 0.64 mm OD; 0.64 mm, 1.19 OD, respectively, Degania Silicone, Degania Bet, Israel). Collaterals were temporarily occluded by the application of a tourniquet around the groin, which was fixed to the inguinal ligament. An oxygenation reservoir and a roller pump (Masterflex) were included in the vascularly isolated circuit, which was, initially, perfused with haemaccel (Behring Pharma, Amsterdam, The Netherlands) for 3 minutes at a flow speed of 2 ml/min to wash out the blood. After the first wash out step, recirculation was performed with recombinant adenoviruses (50 μl-1 ml, containing approximately 10^9 infectious units (i.u.)) dissolved in 2.5-3.5 ml Haemaccel at the same flow rate for a time period ranging from 5 to 30 minutes. Followed by a second perfusion step of 5 minutes to wash out the non-bound virus with Haemaccel. […]

As for `COc1cccc2c1C(=O)c1c(O)c3c(c(O)c1C2=O)C[C@@](O)(C(=O)CO)C[C@@H]3O[C@H]1C[C@H](N)[C@H](O)[C@H](C)O1` [doxorubicin], the “effect of addition to the IG.Ad.CMV.rIL-3 perfusion on the antitumor response” value (shortened to “effect of addition”) was “does not influence the antitumor response”.

On to `N[C@@H](Cc1ccc(N(CCCl)CCCl)cc1)C(=O)O` [melphalan], for which the “effect of addition” value is on record as “does not influence the antitumor response”.

On to TNFα, for which the “effect of addition” value is “does not influence the antitumor response”.
